Experimental data as given in PubChem BioAssay (NCI).
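Where inhibition never reached the appropriate level, the endpoint shown equals the highest concentration tested. Otherwise, values were interpolated linearly from a five-concentration, 48-hour dose response in 96-well plates. GI50: concentration for 50% inhibition of growth. TGI marks complete inhibition of growth.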

Key:
Test in all cases: NCI anticancer screen, dose series, 48 h
786-0 renal = tested on: 786-0 renal
A498 renal = tested on: A498 renal
A549 NSCLC = tested on: A549 NSCLC
ACHN renal = tested on: ACHN renal
BT-549 breast = tested on: BT-549 breast
CAKI-1 renal = tested on: CAKI-1 renal
CCRF-CEM leukemia = tested on: CCRF-CEM leukemia
COLO 205 colon = tested on: COLO 205 colon
DU-145 prostate = tested on: DU-145 prostate
EKVX NSCLC = tested on: EKVX NSCLC
HCC-2998 colon = tested on: HCC-2998 colon
HCT-116 colon = tested on: HCT-116 colon
HCT-15 colon = tested on: HCT-15 colon
HL-60(TB) leukemia = tested on: HL-60(TB) leukemia
HOP-62 NSCLC = tested on: HOP-62 NSCLC
HOP-92 NSCLC = tested on: HOP-92 NSCLC
HS 578T breast = tested on: HS 578T breast
HT29 colon = tested on: HT29 colon
IGROV1 ovarian = tested on: IGROV1 ovarian
K-562 leukemia = tested on: K-562 leukemia
KM12 colon = tested on: KM12 colon
LOX IMVI melanoma = tested on: LOX IMVI melanoma
M14 melanoma = tested on: M14 melanoma
MALME-3M melanoma = tested on: MALME-3M melanoma
MCF7 breast = tested on: MCF7 breast
MDA-MB-231 breast = tested on: MDA-MB-231 breast
MDA-MB-435 = tested on: MDA-MB-435
MOLT-4 leukemia = tested on: MOLT-4 leukemia
NCI-H226 lung = tested on: NCI-H226 lung
NCI-H460 lung = tested on: NCI-H460 lung
NCI-H522 lung = tested on: NCI-H522 lung
NCI/ADR-RES ovarian = tested on: NCI/ADR-RES ovarian
OVCAR-3 ovarian = tested on: OVCAR-3 ovarian
OVCAR-4 ovarian = tested on: OVCAR-4 ovarian
OVCAR-5 ovarian = tested on: OVCAR-5 ovarian
OVCAR-8 ovarian = tested on: OVCAR-8 ovarian
PC-3 prostate = tested on: PC-3 prostate
RPMI-8226 leukemia = tested on: RPMI-8226 leukemia
RXF 393 renal = tested on: RXF 393 renal
SF-268 CNS = tested on: SF-268 CNS
SF-295 CNS = tested on: SF-295 CNS
SF-539 CNS = tested on: SF-539 CNS
SK-MEL-2 melanoma = tested on: SK-MEL-2 melanoma
SK-MEL-28 melanoma = tested on: SK-MEL-28 melanoma
SK-MEL-5 melanoma = tested on: SK-MEL-5 melanoma
SK-OV-3 ovarian = tested on: SK-OV-3 ovarian
SN12C renal = tested on: SN12C renal
SNB-19 CNS = tested on: SNB-19 CNS
SNB-75 CNS = tested on: SNB-75 CNS
SR leukemia = tested on: SR leukemia
SW-620 colon = tested on: SW-620 colon
T-47D breast = tested on: T-47D breast
TK-10 renal = tested on: TK-10 renal
U251 CNS = tested on: U251 CNS
UACC-257 melanoma = tested on: UACC-257 melanoma
UACC-62 melanoma = tested on: UACC-62 melanoma
UO-31 renal = tested on: UO-31 renal

SMILES: C/C(=C(/c1ccc(O)cc1)c1ccc(OCCN2CCCCCC2)cc1)c1ccccc1
- GI50 (786-0 renal): 27.1 µM
- TGI (786-0 renal): > 100 µM
- GI50 (A498 renal): > 100 µM
- TGI (A498 renal): > 100 µM
- GI50 (A549 NSCLC): > 100 µM
- TGI (A549 NSCLC): > 100 µM
- GI50 (ACHN renal): > 100 µM
- TGI (ACHN renal): > 100 µM
- GI50 (BT-549 breast): > 100 µM
- TGI (BT-549 breast): > 100 µM
- GI50 (CAKI-1 renal): 65.9 µM
- TGI (CAKI-1 renal): > 100 µM
- GI50 (CCRF-CEM leukemia): 76.2 µM
- TGI (CCRF-CEM leukemia): > 100 µM
- GI50 (COLO 205 colon): 17.9 µM
- TGI (COLO 205 colon): 34.4 µM
- GI50 (DU-145 prostate): > 100 µM
- TGI (DU-145 prostate): > 100 µM
- GI50 (EKVX NSCLC): > 100 µM
- TGI (EKVX NSCLC): > 100 µM
- GI50 (HCC-2998 colon): 34.1 µM
- TGI (HCC-2998 colon): > 100 µM
- GI50 (HCT-116 colon): 34.1 µM
- TGI (HCT-116 colon): > 100 µM
- GI50 (HCT-15 colon): 23.8 µM
- TGI (HCT-15 colon): 69.9 µM
- GI50 (HL-60(TB) leukemia): 26.5 µM
- TGI (HL-60(TB) leukemia): > 100 µM
- GI50 (HOP-62 NSCLC): > 100 µM
- TGI (HOP-62 NSCLC): > 100 µM
- GI50 (HOP-92 NSCLC): 61.8 µM
- TGI (HOP-92 NSCLC): > 100 µM
- GI50 (HS 578T breast): 60.7 µM
- TGI (HS 578T breast): > 100 µM
- GI50 (HT29 colon): 27.7 µM
- TGI (HT29 colon): > 100 µM
- GI50 (IGROV1 ovarian): > 100 µM
- TGI (IGROV1 ovarian): > 100 µM
- GI50 (K-562 leukemia): 22.7 µM
- TGI (K-562 leukemia): > 100 µM
- GI50 (KM12 colon): 83.8 µM
- TGI (KM12 colon): > 100 µM
- GI50 (LOX IMVI melanoma): 19.5 µM
- TGI (LOX IMVI melanoma): 41.5 µM
- GI50 (M14 melanoma): 35.5 µM
- TGI (M14 melanoma): > 100 µM
- GI50 (MALME-3M melanoma): 40.9 µM
- TGI (MALME-3M melanoma): > 100 µM
- GI50 (MCF7 breast): 0.0615 µM
- TGI (MCF7 breast): > 100 µM
- GI50 (MDA-MB-231 breast): > 100 µM
- TGI (MDA-MB-231 breast): > 100 µM
- GI50 (MDA-MB-435): > 100 µM
- TGI (MDA-MB-435): > 100 µM
- GI50 (MOLT-4 leukemia): 32.6 µM
- TGI (MOLT-4 leukemia): > 100 µM
- GI50 (NCI-H226 lung): > 100 µM
- TGI (NCI-H226 lung): > 100 µM
- GI50 (NCI-H460 lung): 38.2 µM
- TGI (NCI-H460 lung): > 100 µM
- GI50 (NCI-H522 lung): > 100 µM
- TGI (NCI-H522 lung): > 100 µM
- GI50 (NCI/ADR-RES ovarian): > 100 µM
- TGI (NCI/ADR-RES ovarian): > 100 µM
- GI50 (OVCAR-3 ovarian): > 100 µM
- TGI (OVCAR-3 ovarian): > 100 µM
- GI50 (OVCAR-4 ovarian): > 100 µM
- TGI (OVCAR-4 ovarian): > 100 µM
- GI50 (OVCAR-5 ovarian): > 100 µM
- TGI (OVCAR-5 ovarian): > 100 µM
- GI50 (OVCAR-8 ovarian): > 100 µM
- TGI (OVCAR-8 ovarian): > 100 µM
- GI50 (PC-3 prostate): 57.9 µM
- TGI (PC-3 prostate): > 100 µM
- GI50 (RPMI-8226 leukemia): 30.5 µM
- TGI (RPMI-8226 leukemia): > 100 µM
- GI50 (RXF 393 renal): 31.2 µM
- TGI (RXF 393 renal): > 100 µM
- GI50 (SF-268 CNS): > 100 µM
- TGI (SF-268 CNS): > 100 µM
- GI50 (SF-295 CNS): 93.3 µM
- TGI (SF-295 CNS): > 100 µM
- GI50 (SF-539 CNS): 61.3 µM
- TGI (SF-539 CNS): > 100 µM
- GI50 (SK-MEL-2 melanoma): > 100 µM
- TGI (SK-MEL-2 melanoma): > 100 µM
- GI50 (SK-MEL-28 melanoma): 42.9 µM
- TGI (SK-MEL-28 melanoma): > 100 µM
- GI50 (SK-MEL-5 melanoma): 66.1 µM
- TGI (SK-MEL-5 melanoma): > 100 µM
- GI50 (SK-OV-3 ovarian): > 100 µM
- TGI (SK-OV-3 ovarian): > 100 µM
- GI50 (SN12C renal): > 100 µM
- TGI (SN12C renal): > 100 µM
- GI50 (SNB-19 CNS): > 100 µM
- TGI (SNB-19 CNS): > 100 µM
- GI50 (SNB-75 CNS): > 100 µM
- TGI (SNB-75 CNS): > 100 µM
- GI50 (SR leukemia): 22 µM
- TGI (SR leukemia): 69.6 µM
- GI50 (SW-620 colon): 25.5 µM
- TGI (SW-620 colon): 75.5 µM
- GI50 (T-47D breast): 11.5 µM
- TGI (T-47D breast): > 100 µM
- GI50 (TK-10 renal): > 100 µM
- TGI (TK-10 renal): > 100 µM
- GI50 (U251 CNS): 69.9 µM
- TGI (U251 CNS): > 100 µM
- GI50 (UACC-257 melanoma): 48.2 µM
- TGI (UACC-257 melanoma): > 100 µM
- GI50 (UACC-62 melanoma): > 100 µM
- TGI (UACC-62 melanoma): > 100 µM
- GI50 (UO-31 renal): 57.5 µM
- TGI (UO-31 renal): > 100 µM
